{"source": "patent US12035716B2", "about": "“Treatment for seeds disinfection” (VILMORIN & CIE, priority 2013, dated 2024)", "tested_on": "CGMMV", "method": "Samples of two commercial cucumber seed lots naturally infected by CGMMV in the production field were treated by standard disinfection or by vacuum infiltration methods. All treatments were done on 1500 seed in 300 ml solution for 40 minutes, followed by 40 minutes wash under running water. For the standard disinfection we used 2.5% Na-Dichloroisocyanurate solution and for the vacuum infiltration we used a solution containing 1.5% Na-Dichloroisocyanurate. The vacuum/de vacuum cycles were applied gradually starting at 500 mbar and increased by 100 mbar each cycle up to the maximum of 985 mbar. Then we continued vacuum/de-vacuum cycles at maximum vacuum pressure of 985 mbar for a total of 30 cycles. At the end of the treatment the floating seeds were discarded and the heavy fraction was collected, washed and dried for testing.\nCGMMV was tested by ELISA assay according to method 7-026 of the international rules for seed testing annex to chapter 7: seed health testing methods; International Seed Testing Association, Zurich, Switzerland, 2010. The germination test was performed on petri dishes (TOP) at 24 C incubator and root protrusion was counted at 4 days after seeding (TOP at 4 d).", "key": {"[1]": {"details": "seed lot A, VI disinfection 1.5%, heavy fraction"}, "[2]": {"details": "seed lot A, standard disinfection 2.5%"}, "[3]": {"details": "seed lot B, VI disinfection 1.5%, heavy fraction"}, "[4]": {"details": "seed lot B, standard disinfection 2.5%"}}, "note": "Like-named read-outs stand apart in the source and are kept apart here."}
{"smiles": "O=c1nc([O-])n(Cl)c(=O)n1Cl.[Na+]", "note": "[Na-Dichloroisocyanurate]", "values": [{"measurement": "ELISA 10 replicates results, Positive/total", "setting": "[1]", "result": "0/10"}, {"measurement": "Remarks (seed health)", "setting": "[1]", "result": "Clean"}, {"measurement": "ELISA 10 replicates results, Average count", "setting": "seed lot A, VI disinfection 1.5%, heavy fraction, cut-off 0.148, untreated 0.693", "result": 0.072}, {"measurement": "ELISA 10 replicates results, Positive/total", "setting": "[2]", "result": "9/10"}, {"measurement": "Remarks (seed health)", "setting": "[2]", "result": "Contaminated"}, {"measurement": "ELISA 10 replicates results, Average count", "setting": "seed lot A, standard disinfection 2.5%, cut-off 0.174, untreated 0.693", "result": 0.238}, {"measurement": "ELISA 10 replicates results, Positive/total", "setting": "[3]", "result": "0/10"}, {"measurement": "Remarks (seed health)", "setting": "[3]", "result": "Clean"}, {"measurement": "ELISA 10 replicates results, Average count", "setting": "seed lot B, VI disinfection 1.5%, heavy fraction, cut-off 0.148, untreated 0.737", "result": 0.075}, {"measurement": "ELISA 10 replicates results, Positive/total", "setting": "[4]", "result": "4/10"}, {"measurement": "Remarks (seed health)", "setting": "[4]", "result": "Contaminated"}, {"measurement": "ELISA 10 replicates results, Average count", "setting": "seed lot B, standard disinfection 2.5%, cut-off 0.156, untreated 0.737", "result": 0.177}]}
